US8445207B2, “Genes based on thalidomide, valproic acid and methotrexate treatment for screening of drug inducing teratogenicity and screening method using thereof” (priority 2009, dated 2013)

System: JEG-3 (human placental choriocarcinoma cell line)
Assay: Oligo microarray gene expression in drug-treated JEG-3 (Cy5 treated / Cy3 control)
Type: cell-based
Protocol: Thalidomide, valproic acid, and methotrexate were treated to human placental choriocarcinoma cell line at the concentrations determined above (Inhibition concentration: the concentration that can kill approximately 30% of the total cells, that is the concentration of 70% viability, IC30). mRNA was extracted from the drug treated cell line, followed by synthesis of cDNA which was labeled with Cy5. The non-treated control was labeled with Cy3. The fluorescence labeled cDNA was hybridized with 41K (thalidomide), 44K (valproic acid, methotrexate) human whole genome oligomicroarray chips (Agilent, USA), followed by fluorescent image scanning to analyze gene expression patterns (see FIG. 4). Volcano Plot of each substance was also attached. Y axis indicates probability (generally converted by −log 10). X axis indicates differential expression, which is presented by log-ratio.
Total RNA was separated from the treated cell by using trizol reagent (Invitrogen Life Technologies, USA) according to the manufacture's instructions, followed by purification using RNeasy mini kit (Qiagen, USA). Genomic DNA was eliminated during RNA purification using RNase-free DNase set (Qiagen, USA).
30 μg of the total RNA obtained above and 2 μg (1 μg/μl) of oligo (dT) primer were mixed, followed by reaction at 65° C. for 10 minutes. Annealing was performed in ice right after the reaction. Reagents were prepared as shown in Table 1 for reverse transcription of the annealed RNA.
The total RNA separated from the control group JEG-3 cells was labeled with Cy3-dUTP (green) and the total RNA separated from the experiment group JEG-3 cells treated with thalidomide, valproic acid and methotrexate was labeled with Cy5-dUTP (red). At this time, the two samples were mixed and purified by Microcon YM-30 column (Millipore, USA).
Hybridization and washing were performed by the manufacturer's (GenoCheck, Korea) instructions. Particularly, hybridization was performed in a 62° C. oven for 12 hours. As a DNA microarray chip, 44 k whole human genome oligo microarray (Agilent, USA) was used. After washing (2 minutes with 2×SSC/0.1% SDS, three minutes with 1×SSC, 2 minutes with 0.2×SSC), the slide was dried by centrifugation at 800 rpm for 3 minutes.
Hybridization image on the slide was scanned with Genepix 4000B (Axon Instruments, USA). Fluorescence image of the chip on which non-hybridized genes had been washed out was obtained by using laser fluorescence scanner. Green fluorescence image indicates the activity of gene specifically expressed in the control group and red fluorescence image indicates the activity of gene specifically expressed in the experimental group. […] Scanned image was analyzed by using GenePix 4.1 software (Axon Instruments, USA) to calculate gene expression rate.

[1] = out of 21797 (thalidomide), 21921 (valproic acid), 24006 (methotrexate) genes
[2] = treated at IC30, up-regulated gene, (h) Nervous system development

## CCCC(CCC)C(=O)O [VPA, valproic acid]
GenBank AB002308
  cDNA microarray (Cy3/Cy5 ratio), KIAA0310: 1.59
GenBank AB018258
  cDNA microarray (Cy3/Cy5 ratio), ATP10B: 2.03
GenBank AB209845
  cDNA microarray (Cy3/Cy5 ratio), TTF2: 1.81
GenBank AF001893
  cDNA microarray (Cy3/Cy5 ratio), TncRNA: 3.61
GenBank AK001879
  cDNA microarray (Cy3/Cy5 ratio), C4orf19: 1.87
GenBank AK023571
  cDNA microarray (Cy3/Cy5 ratio), CYP19A1: 1.78
GenBank AK023574
  cDNA microarray (Cy3/Cy5 ratio), SLC40A1: 1.7
GenBank AK095632
  cDNA microarray (Cy3/Cy5 ratio), ABTB2: 1.6
GenBank AK122757
  cDNA microarray (Cy3/Cy5 ratio), TUBB3: 1.7
GenBank AK125877
  cDNA microarray (Cy3/Cy5 ratio), MGC27016: 2.62
GenBank AK126731
  cDNA microarray (Cy3/Cy5 ratio), GLCCI1: 2.27
GenBank BC036890
  cDNA microarray (Cy3/Cy5 ratio), TFCP2L4: 3.12
GenBank BC042755
  cDNA microarray (Cy3/Cy5 ratio), RGS2: 3.04
GenBank BC063830
  cDNA microarray (Cy3/Cy5 ratio), SIAT7A: 1.69
GenBank BX648021
  cDNA microarray (Cy3/Cy5 ratio), B7-H4: 0.1
GenBank BX649112
  cDNA microarray (Cy3/Cy5 ratio), COBLL1: 1.52
GenBank NM_000735
  cDNA microarray (Cy3/Cy5 ratio), CGA: 2.14
GenBank NM_001618
  cDNA microarray (Cy3/Cy5 ratio), PARP1: 0.61
GenBank NM_004155
  cDNA microarray (Cy3/Cy5 ratio), SERPINB9: 3.02
GenBank NM_005668
  cDNA microarray (Cy3/Cy5 ratio), ST8SIA4: 1.79
GenBank NM_007313
  cDNA microarray (Cy5 treated / Cy3 control ratio), ABL1: 0.3
GenBank NM_024342
  cDNA microarray (Cy3/Cy5 ratio), GRLF1: 0.55
GenBank NM_032484
  cDNA microarray (Cy3/Cy5 ratio), LGP1: 0.52
GenBank NM_181659
  cDNA microarray (Cy3/Cy5 ratio), NCOA3: 1.62
GenBank XM_031553
  cDNA microarray (Cy3/Cy5 ratio), SR140: 0.36
GenBank Y18483
  cDNA microarray (Cy3/Cy5 ratio), SLC7A8: 2.48
Genbank AK091644, drug at IC30
  Ratio of intermediate value, FLJ13855: 0.44
Genbank BI494022, NM_024342, drug at IC30
  Ratio of intermediate value, GRLF1: 0.55
Genbank BX648021, drug at IC30
  Ratio of intermediate value, B7-H4: 0.10
Genbank NM_001618, drug at IC30
  Ratio of intermediate value, PARP1: 0.61
Genbank NM_007313, drug at IC30
  Ratio of intermediate value, ABL1: 0.30
Genbank NM_032484, drug at IC30
  Ratio of intermediate value, LGP1: 0.52
Genbank XM_031553, drug at IC30
  Ratio of intermediate value, SR140: 0.36
JEG-3, drug at IC30, 48 hours
  genes down-regulated (ratio of intermediate value less than 0.666): 5.5%
  genes up-regulated (ratio of intermediate value more than 1.5): 5.54%
[1]
  number of genes down-regulated: 1196
  number of genes up-regulated: 1215
[2]
  Ratio of intermediate value, gene ALDH5A1 (NM_170740, ALDEHYDE DEHYDROGENASE 5 FAMILY, MEMBER A1 (SUCCINATE-SEMIALDEHYDE DEHYDROGENASE)): 4.68
  Ratio of intermediate value, gene ALS2 (NM_020919, AMYOTROPHIC LATERAL SCLEROSIS 2 (JUVENILE)): 2.40
  Ratio of intermediate value, gene C22orf9 (AY509035, ROUND-ABOUT, AXON GUIDANCE RECEPTOR, HOMOLOG 3 (DROSOPHILA)): 2.30
  Ratio of intermediate value, gene DLX2 (AB208823, NM_004405, DISTAL-LESS HOMEOBOX 2): 3.18
  Ratio of intermediate value, gene DPYSL2 (NM_001386, DIHYDROPYRIMIDINASE-LIKE 2): 3.34
  Ratio of intermediate value, gene DPYSL5 (AL713706, DIHYDROPYRIMIDINASE-LIKE 5): 2.57
  Ratio of intermediate value, gene EDG1 (BC018650, ENDOTHELIAL DIFFERENTIATION, SPHINGOLIPID G-PROTEIN-COUPLED RECEPTOR, 1): 2.34
  Ratio of intermediate value, gene EFCBP1 (L20470, VERY LOW DENSITY LIPOPROTEIN RECEPTOR): 2.10
  Ratio of intermediate value, gene FABP7 (NM_001446, FATTY ACID BINDING PROTEIN 7, BRAIN): 9.51
  Ratio of intermediate value, gene FLJ20489 (AK056650, IMMUNOGLOBULIN SUPERFAMILY, MEMBER 9): 2.50
  Ratio of intermediate value, gene FLJ31842 (AY643499, HEXOSAMINIDASE B (BETA POLYPEPTIDE)): 2.38
  Ratio of intermediate value, gene GJA1 (NM_000165, GAP JUNCTION PROTEIN, ALPHA 1, 43 KDA (CONNEXIN 43)): 4.30
  Ratio of intermediate value, gene GRB14 (BM906235, INHIBITOR OF DNA BINDING 3, DOMINANT NEGATIVE HELIX-LOOP-HELIX PROTEIN): 4.33
